From PMC8773328, “Antioxidative and Analgesic Effects of Naringin through Selective Inhibition of Transient Receptor Potential Vanilloid Member 1” (Antioxidants, 2021)

Assays:
Assay type in all cases: cell-based
[1] = molecular target: T1, Transient receptor potential vanilloid member 1 (TRPV1) (Rattus norvegicus, UniProt O35433); assay: two-electrode voltage clamp in Xenopus oocytes expressing TRPV1, inhibition of current (reference antagonist)
T1 construct: Rat TRPV1 cDNA (NM_031982)

[2] = molecular target: T1, Transient receptor potential vanilloid member 1 (TRPV1); assay: two-electrode voltage clamp in Xenopus oocytes expressing TRPV1, inhibition of capsaicin-induced current
[3] = molecular target: T2, Transient receptor potential vanilloid member 1 (TRPV1) (Rattus norvegicus, UniProt O35433, N628A); assay: two-electrode voltage clamp in Xenopus oocytes expressing mutant TRPV1, inhibition of capsaicin-induced current (reduced maximum inhibition); conditions: read-out: Hill Equation / y = Vmin + (Vmax - Vmin) × x^n/(k^n x^n) / Value
T2 construct: Rat TRPV1 cDNA (NM_031982), N628A
T2 sequence (O35433 whole entry N628A): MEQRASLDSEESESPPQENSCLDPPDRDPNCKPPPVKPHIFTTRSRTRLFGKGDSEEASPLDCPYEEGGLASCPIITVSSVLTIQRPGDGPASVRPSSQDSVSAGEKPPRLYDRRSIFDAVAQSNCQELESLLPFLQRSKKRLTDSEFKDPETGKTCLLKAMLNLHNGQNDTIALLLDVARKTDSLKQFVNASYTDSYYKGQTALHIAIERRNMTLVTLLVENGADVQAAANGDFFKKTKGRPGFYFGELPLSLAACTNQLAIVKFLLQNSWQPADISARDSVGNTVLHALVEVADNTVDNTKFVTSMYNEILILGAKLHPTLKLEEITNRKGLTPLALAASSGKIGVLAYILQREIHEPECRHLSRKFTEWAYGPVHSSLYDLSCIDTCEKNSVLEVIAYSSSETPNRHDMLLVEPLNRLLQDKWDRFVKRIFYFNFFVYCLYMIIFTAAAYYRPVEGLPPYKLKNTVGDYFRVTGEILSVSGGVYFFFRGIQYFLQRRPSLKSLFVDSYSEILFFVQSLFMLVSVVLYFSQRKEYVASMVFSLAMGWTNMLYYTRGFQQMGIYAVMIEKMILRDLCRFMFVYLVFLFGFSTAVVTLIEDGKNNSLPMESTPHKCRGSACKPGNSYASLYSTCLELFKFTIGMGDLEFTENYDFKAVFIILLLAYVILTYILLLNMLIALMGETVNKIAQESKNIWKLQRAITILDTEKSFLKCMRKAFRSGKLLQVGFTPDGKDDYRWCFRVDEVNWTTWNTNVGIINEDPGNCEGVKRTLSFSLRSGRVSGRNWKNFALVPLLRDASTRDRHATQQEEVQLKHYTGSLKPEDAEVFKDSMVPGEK

T1 sequence (O35433 whole entry): as the sequence (O35433 whole entry N628A) above, with A628N counted along it

IC50 [1] [µM] | IC50 [2] [µM] | IC50 [3] [µM] | SMILES
10.1 |  |  | Oc1cc2c(cc1O)CN(C(=S)NCCc1ccc(Cl)cc1)CCC2 [capsazepine]
 | 33.3 | 24.2 | C[C@@H]1O[C@@H](O[C@H]2[C@H](Oc3cc(O)c4c(c3)O[C@H](c3ccc(O)cc3)CC4=O)O[C@H](CO)[C@@H](O)[C@@H]2O)[C@H](O)[C@H](O)[C@H]1O [naringin]
